Experimental findings from publication PMC9182490, “N-Glucosylation in Corynebacterium glutamicum with YdhE from Bacillus lichenformis” (Molecules, 2022) are described below.

This assay has as its target T1, YdhE (CO-YdhE) (Bacillus licheniformis, UniProt Q62XT4).
T1 construct: 45 kDa band on SDS-PAGE; not purified
T1 sequence (Q62XT4 1-404): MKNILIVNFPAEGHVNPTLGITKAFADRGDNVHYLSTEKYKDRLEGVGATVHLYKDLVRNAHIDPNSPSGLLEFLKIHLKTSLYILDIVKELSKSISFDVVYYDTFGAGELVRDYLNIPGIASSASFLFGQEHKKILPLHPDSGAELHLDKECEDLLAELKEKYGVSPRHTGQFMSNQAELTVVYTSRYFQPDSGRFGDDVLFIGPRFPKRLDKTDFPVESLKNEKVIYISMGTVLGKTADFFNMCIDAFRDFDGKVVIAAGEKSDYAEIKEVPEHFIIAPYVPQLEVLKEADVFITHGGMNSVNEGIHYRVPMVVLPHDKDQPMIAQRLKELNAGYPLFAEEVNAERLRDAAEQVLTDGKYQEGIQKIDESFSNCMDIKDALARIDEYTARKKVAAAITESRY
As to the kind of experiment: whole-cell N-glucosylation, HPLC-PDA and HR-QTOF ESI/MS, product NMR. It is filed as cell-based, Corynebacterium glutamicum. As to conditions: C. glutamicum harboring pSKSM-YdhE; glucose as sugar source, UDP-sugar donor made by host; 2 mM substrate, 37 °C; product is N-beta-D-glucopyranoside.

Regarding `CCCCOC(=O)c1ccc(N)cc1` [compound 2, butyl-4-aminobenzoate], the “whole-cell N-glucosylation, HPLC-PDA and HR-QTOF ESI/MS, product NMR” value is “confirmed the glucosylation of butyl-4-aminobenzoate”.
